Legend:
[1] = system: mouse aortic smooth muscle cell (mASMC); assay: mASMC proliferation by MTT assay; type: cell-based; details: PGD2 1 and 5 μM, 24 hr, confluent, quiescent SMC
Description: FIG. 6 depicts the effect of PGD2 on mASMC proliferation. Confluent, quiescent SMC were treated with varies concentrations of PGD2. Cell proliferation was determined by MTT assay at 24 hr. Values are mean±S.E.M. (*: P<0.005, by One-way ANOVA and t test, n=6).
The effect of PGD2 on mASMC proliferation was determined by MTT assay.

[2] = system: MAP Kinase (MAPK), phosphorylated ERK1/2, in mASMC; assay: MAPK activation in mASMC by Western analysis of SMC lysate; type: cell-based, mouse
Description: FIG. 7 depicts the effect of PGD2 on MAPK activation in mASMC. Confluent, quiescent SMC were treated with 1 μM PGD2 for varies timepoints. Cells were lysed and the lysate was analyzed for phosphorylated ERK1/2 (upper panel) and MARK (lower panel) by Western analysis, using antibodies to phosphotyrosine −ERK1/2 and ERK1/2, respectively.
The effect of PGD2 on activation of MAP Kinase (MAPK) was tested by Western analysis of SMC lysate.

`CCCCC[C@H](O)/C=C/[C@H]1C(=O)C[C@H](O)[C@@H]1C/C=C\CCCC(=O)O` [PGD2, Prostaglandin D2] was tested, and the “effect on mASMC proliferation” value [1] was “significantly promote mASMC proliferation”, the “level of phosphorylated-MAPK1/2 over time” value ([2]; 1 μM PGD2, after 15 min) was “returned to control levels” and the “activation of MAP Kinase (phosphorylated-MAPK1/2, 44 and 42 kDa)” value ([2]; 1 μM PGD2, as early as 10 min) was “induction of a phosphorylated-MAPK1/2”.

— patent US8165517B2, “Methods for identifying inhibitors of vascular injury” (The Trustees of the University of Pennsylvania, priority 2005, dated 2012)
